Source: patent publication US5250194A, “N-dodecyl heterocyclic compounds useful as industrial microbicides and preservatives” (Buckman Laboratories International, Inc., priority 1992, dated 1993)
Values after ≈ are worked out from the molar mass of the structure shown.

Tested on: epoxidation of aldrin
Experiment: not given
Settings: rat liver; Wilkinson et al.; cited from earlier work

| SMILES | inhibitor of epoxidation of aldrin |
| --- | --- |
| CCCCCCCCCCCCn1ccnc1 [Compound 2, N-Dodecylimidazole] | inhibitor of epoxidation of aldrin of rat liver |

Tested on: Aspergillus niger
Experiment: Fungal growth inhibition, minimum inhibitory concentration
Assay type: cell-based
Settings: pH 6.0, completely prevented growth, read-out: Minimum inhibitory concentration against fungi
Description: The microorganism growth inhibiting activity of N-dodecyl heterocyclic compounds on the fungus Aspergillus niger was evaluated.

| SMILES | MIC [µg/mL] |
| --- | --- |
| CCCCCCCCCCCCN1CCOCC1 [Compound 1, N-Dodecylmorpholine] | > 100 |
| CCCCCCCCCCCCn1ccnc1 [Compound 2, N-Dodecylimidazole] | 32 (≈ 135 µM) |
| CCCCCCCCCCCCN1CC(C)OC(C)C1 (centres unmarked) [Compound 3, N-dodecyl-2,6-dimethylmorpholine] | 128 (≈ 451 µM) |
| CCCCCCCCCCCCN1CC(CCl)OC1=O (centres unmarked) [Compound 4, N-dodecyl-5-chloromethyl-2-oxazolidinone] | > 512 |
| CCCCCCCCCCCCN1CCCC1=O [Compound 5, N-Dodecyl-2-pyrrolidinone] | 32 (≈ 126 µM) |
| CCCCCCCCCCCCN1CCCCCC1 [Compound 6, N-Dodecylhexamethyleneimine] | 256 (≈ 957 µM) |
| CCCCCCCCCCCCN1CCCC1 [Compound 7, N-Dodecylpyrrolidine] | 128 (≈ 535 µM) |
| CCCCCCCCCCCCN1CCCC(C)C1 (centres unmarked) [Compound 8, N-dodecyl-3-methylpiperidine] | 256 (≈ 957 µM) |
| CCCCCCCCCCCCN1CCCCC1 [Compound 9, N-Dodecylpiperidine] | 32 (≈ 126 µM) |
| CCCCCCCCCCCCN1CCC(C)CC1 [Compound 10, N-Dodecyl-4-methylpiperidine] | 1000 (≈ 3740 µM) |
| CCCCCCCCCCCCN1CCCCC1C (centres unmarked) [Compound 11, N-Dodecyl-2-methylpiperidine] | 1000 (≈ 3740 µM) |

Tested on: Chlorococcum hypnosporum
Experiment: Algae growth inhibition in Difco Algae Broth
Assay type: cell-based
Settings: 672 h, C. hypnosporum, pH 7.0, 28 days, read-out: Minimum inhibitory concentration against algae
Description: (§1) The growth inhibiting activity of the method of the invention against the three algae Chlorella pyrenoidosa, Chlorococcum hypnosporum and Phormidium inundatum was evaluated in Difco Algae Broth, the content of which was as follows:
(§2) Forty-gram portions of the algae medium were added to 250 mL Pyrex Erlenmeyer flasks fitted with loose metal caps and then sterilized. Each of the following substances wa then added to the flasks in the order listed:
(§3) 1. Sterile algae medium as required to bring the total weight of the contents of each flask to 50 grams, after allowing for all subsequent additions specified below.
(§4) 2. A solution of the N-dodecyl heterocyclic toxicant or of a control agent to be evaluated in each test, to give the concentration desired in parts per million by weight.
(§5) 3. Chlorella pyrenoidosa, Chlorococcum hypnosporum and Phormidium inundatum in amounts sufficient to give excellent growth in the controls after 14 days. This was achieved by adding 1 milliliter of a 14 day old culture having luxuriant growth. The Chlorella pyrenoidosa culture was obtained from American Type Culture Collection No. 7516; Chlorococcum hynosporum, from the University of Texas at Austin; and Phormidium inundatum, Wisconsin No. 1093, from the University of Washington.
(§6) As a control experiment, WSCP was used as a positive control agent. WSCP is a known toxicant which kills C. pyrenoidosa at 2 ppm, C. hypnosporum at 2 ppm and P. inundatum at 10 ppm. Control experiments were also carried out where no toxicants were also employed. In the algicidal tests the growth of algae in the nutrient medium is lush green and can be seen with the naked eye. Because the minimum inhibitory concentrations of the compounds in this example are those which result in complete inhibition evaluation of the test results is not subjective.
(§7) After the inoculum of the test algae was added, the flasks were incubated at a temperature of 28° ±2° C. under fluorescent illumination of 250 foot-candle intensity (8 hours light, 16 hours darkness) for a period adequate for growth in the controls (those portions of medium which contained no toxicant). Observations of growth were made at 7-day intervals. Minimum inhibitory concentrations are those that prevented complete growth after 28 days.

| SMILES | MIC [µg/mL] |
| --- | --- |
| CCCCCCCCCCCCN1CCOCC1 [Compound 1, N-Dodecylmorpholine] | 1 (≈ 3.91 µM) |
| CCCCCCCCCCCCn1ccnc1 [Compound 2, N-Dodecylimidazole] | 0.7 (≈ 2.96 µM) |
| CCCCCCCCCCCCN1CC(C)OC(C)C1 (centres unmarked) [Compound 3, N-dodecyl-2,6-dimethylmorpholine] | < 1 |
| CCCCCCCCCCCCN1CC(CCl)OC1=O (centres unmarked) [Compound 4, N-dodecyl-5-chloromethyl-2-oxazolidinone] | 100 (≈ 329 µM) |
| CCCCCCCCCCCCN1CCCC1=O [Compound 5, N-Dodecyl-2-pyrrolidinone] | 10 (≈ 39.5 µM) |
| CCCCCCCCCCCCN1CCCC(C)C1 (centres unmarked) [Compound 8, N-dodecyl-3-methylpiperidine] | 1 (≈ 3.74 µM) |
| CCCCCCCCCCCCN1CCC(C)CC1 [Compound 10, N-Dodecyl-4-methylpiperidine] | < 1 |

Same assay, conditions: 672 h, pH 7, read-out: Minimum inhibitory concentration against algae

| SMILES | MIC [µg/mL] |
| --- | --- |
| CCCCCCCCCCCCN1CCCCCC1 [Compound 6, N-Dodecylhexamethyleneimine] | 1 (≈ 3.74 µM) |
| CCCCCCCCCCCCN1CCCC1 [Compound 7, N-Dodecylpyrrolidine] | 1 (≈ 4.18 µM) |
| CCCCCCCCCCCCN1CCCCC1 [Compound 9, N-Dodecylpiperidine] | 1 (≈ 3.95 µM) |
| CCCCCCCCCCCCN1CCCCC1C (centres unmarked) [Compound 11, N-Dodecyl-2-methylpiperidine] | < 1 |

Tested on: Chlorella pyrenoidosa
Experiment: Algae growth inhibition in Difco Algae Broth
Assay type: cell-based
Settings: Auxenochlorella pyrenoidosa, 672 h, pH 7, read-out: Minimum inhibitory concentration against algae
Description: as §1, §2, §3, §4, §5, §6, §7

| SMILES | MIC [µg/mL] |
| --- | --- |
| CCCCCCCCCCCCN1CCCCCC1 [Compound 6, N-Dodecylhexamethyleneimine] | 1 (≈ 3.74 µM) |
| CCCCCCCCCCCCN1CCCC1 [Compound 7, N-Dodecylpyrrolidine] | 1 (≈ 4.18 µM) |
| CCCCCCCCCCCCN1CCCCC1 [Compound 9, N-Dodecylpiperidine] | 1 (≈ 3.95 µM) |
| CCCCCCCCCCCCN1CCCCC1C (centres unmarked) [Compound 11, N-Dodecyl-2-methylpiperidine] | < 1 |

Same assay, conditions: Auxenochlorella pyrenoidosa, 672 h; C. pyrenoidosa, pH 7.0, 28 days; read-out: Minimum inhibitory concentration against algae

| SMILES | MIC [µg/mL] |
| --- | --- |
| CCCCCCCCCCCCN1CCOCC1 [Compound 1, N-Dodecylmorpholine] | 1 (≈ 3.91 µM) |
| CCCCCCCCCCCCn1ccnc1 [Compound 2, N-Dodecylimidazole] | 0.5 (≈ 2.12 µM) |
| CCCCCCCCCCCCN1CC(C)OC(C)C1 (centres unmarked) [Compound 3, N-dodecyl-2,6-dimethylmorpholine] | 10 (≈ 35.3 µM) |
| CCCCCCCCCCCCN1CC(CCl)OC1=O (centres unmarked) [Compound 4, N-dodecyl-5-chloromethyl-2-oxazolidinone] | 100 (≈ 329 µM) |
| CCCCCCCCCCCCN1CCCC1=O [Compound 5, N-Dodecyl-2-pyrrolidinone] | 10 (≈ 39.5 µM) |
| CCCCCCCCCCCCN1CCCC(C)C1 (centres unmarked) [Compound 8, N-dodecyl-3-methylpiperidine] | 10 (≈ 37.4 µM) |
| CCCCCCCCCCCCN1CCC(C)CC1 [Compound 10, N-Dodecyl-4-methylpiperidine] | < 1 |

Tested on: Phormidium inundatum
Experiment: Algae growth inhibition in Difco Algae Broth
Assay type: cell-based
Settings: 672 h, P. inundatum, pH 7.0, 28 days, read-out: Minimum inhibitory concentration against algae
Description: as §1, §2, §3, §4, §5, §6, §7

| SMILES | MIC [µg/mL] |
| --- | --- |
| CCCCCCCCCCCCn1ccnc1 [Compound 2, N-Dodecylimidazole] | 2 (≈ 8.46 µM) |
| CCCCCCCCCCCCN1CC(C)OC(C)C1 (centres unmarked) [Compound 3, N-dodecyl-2,6-dimethylmorpholine] | 1000 (≈ 3530 µM) |
| CCCCCCCCCCCCN1CC(CCl)OC1=O (centres unmarked) [Compound 4, N-dodecyl-5-chloromethyl-2-oxazolidinone] | 100 (≈ 329 µM) |
| CCCCCCCCCCCCN1CCCC1=O [Compound 5, N-Dodecyl-2-pyrrolidinone] | 10 (≈ 39.5 µM) |
| CCCCCCCCCCCCN1CCCC(C)C1 (centres unmarked) [Compound 8, N-dodecyl-3-methylpiperidine] | 10 (≈ 37.4 µM) |
| CCCCCCCCCCCCN1CCC(C)CC1 [Compound 10, N-Dodecyl-4-methylpiperidine] | < 1 |

Same assay, conditions: 672 h, pH 7, read-out: Minimum inhibitory concentration against algae

| SMILES | MIC [µg/mL] |
| --- | --- |
| CCCCCCCCCCCCN1CCCCCC1 [Compound 6, N-Dodecylhexamethyleneimine] | 10 (≈ 37.4 µM) |
| CCCCCCCCCCCCN1CCCC1 [Compound 7, N-Dodecylpyrrolidine] | 1 (≈ 4.18 µM) |
| CCCCCCCCCCCCN1CCCCC1 [Compound 9, N-Dodecylpiperidine] | 10 (≈ 39.5 µM) |
| CCCCCCCCCCCCN1CCCCC1C (centres unmarked) [Compound 11, N-Dodecyl-2-methylpiperidine] | 5 (≈ 18.7 µM) |

Tested on: P. aeruginosa
Experiment: Basal salts method, minimum inhibitory concentration
Assay type: cell-based
Settings: basal salts solution, pH 6.0, at least 80% kill
Description: The preferred compounds of the present invention were tested by the pulp substrate method and basal salts method described in U.S. Pat. No. 2,881,070 at column 5, beginning at line 12 and extending to column 6, line 53. The disclosure of U.S. Pat. No. 2,881,070 is specifically incorporated by reference herein. […] The minimum inhibitory concentrations are those in which a percentage kill of at least 80% is obtained.

| SMILES | Minimum inhibitory concentration |
| --- | --- |
| CCCCCCCCCCCCN1CCOCC1 [Compound 1, N-Dodecylmorpholine] | 8 |
| CCCCCCCCCCCCn1ccnc1 [Compound 2, N-Dodecylimidazole] | 4 |

Same assay, conditions: basal salts solution, pH 8.0, at least 80% kill

| SMILES | Minimum inhibitory concentration |
| --- | --- |
| CCCCCCCCCCCCN1CCOCC1 [Compound 1, N-Dodecylmorpholine] | 40 |
| CCCCCCCCCCCCn1ccnc1 [Compound 2, N-Dodecylimidazole] | 10 |

Tested on: E. aerogenes
Experiment: Pulp substrate method, minimum inhibitory concentration
Assay type: cell-based
Settings: pH 6.0, at least 80% kill
From the text: The minimum inhibitory concentrations are those in which a percentage kill of at least 80% is obtained.

| SMILES | Minimum inhibitory concentration |
| --- | --- |
| CCCCCCCCCCCCN1CCOCC1 [Compound 1, N-Dodecylmorpholine] | 25 |
| CCCCCCCCCCCCn1ccnc1 [Compound 2, N-Dodecylimidazole] | 1000 |
| CCCCCCCCCCCCN1CC(C)OC(C)C1 (centres unmarked) [Compound 3, N-dodecyl-2,6-dimethylmorpholine] | 1000 |
| CCCCCCCCCCCCN1CC(CCl)OC1=O (centres unmarked) [Compound 4, N-dodecyl-5-chloromethyl-2-oxazolidinone] | 1000 |
| CCCCCCCCCCCCN1CCCC1=O [Compound 5, N-Dodecyl-2-pyrrolidinone] | 1000 |
| CCCCCCCCCCCCN1CCCCCC1 [Compound 6, N-Dodecylhexamethyleneimine] | > 1000 |
| CCCCCCCCCCCCN1CCCC1 [Compound 7, N-Dodecylpyrrolidine] | 1000 |
| CCCCCCCCCCCCN1CCCC(C)C1 (centres unmarked) [Compound 8, N-dodecyl-3-methylpiperidine] | 1000 |
| CCCCCCCCCCCCN1CCCCC1 [Compound 9, N-Dodecylpiperidine] | 1000 |
| CCCCCCCCCCCCN1CCC(C)CC1 [Compound 10, N-Dodecyl-4-methylpiperidine] | 100 |
| CCCCCCCCCCCCN1CCCCC1C (centres unmarked) [Compound 11, N-Dodecyl-2-methylpiperidine] | 100 |

Same assay, conditions: pH 8.0, at least 80% kill

| SMILES | Minimum inhibitory concentration |
| --- | --- |
| CCCCCCCCCCCCN1CCOCC1 [Compound 1, N-Dodecylmorpholine] | 25 |
| CCCCCCCCCCCCn1ccnc1 [Compound 2, N-Dodecylimidazole] | > 1000 |
| CCCCCCCCCCCCN1CC(C)OC(C)C1 (centres unmarked) [Compound 3, N-dodecyl-2,6-dimethylmorpholine] | 1000 |
| CCCCCCCCCCCCN1CC(CCl)OC1=O (centres unmarked) [Compound 4, N-dodecyl-5-chloromethyl-2-oxazolidinone] | 1000 |
| CCCCCCCCCCCCN1CCCC1=O [Compound 5, N-Dodecyl-2-pyrrolidinone] | 1000 |
| CCCCCCCCCCCCN1CCCCCC1 [Compound 6, N-Dodecylhexamethyleneimine] | 1000 |
| CCCCCCCCCCCCN1CCCC1 [Compound 7, N-Dodecylpyrrolidine] | > 1000 |
| CCCCCCCCCCCCN1CCCC(C)C1 (centres unmarked) [Compound 8, N-dodecyl-3-methylpiperidine] | > 1000 |
| CCCCCCCCCCCCN1CCCCC1 [Compound 9, N-Dodecylpiperidine] | 1000 |
| CCCCCCCCCCCCN1CCC(C)CC1 [Compound 10, N-Dodecyl-4-methylpiperidine] | > 1000 |
| CCCCCCCCCCCCN1CCCCC1C (centres unmarked) [Compound 11, N-Dodecyl-2-methylpiperidine] | > 1000 |

Tested on: not given
Experiment: not given
Settings: Firestone and Pisano; cited from earlier work

| SMILES | lysosomotropic detergent, useful as anti-cancer compounds and spermicides |
| --- | --- |
| CCCCCCCCCCCCN1CCOCC1 [Compound 1, N-Dodecylmorpholine] | lysosomotropic detergents |
| CCCCCCCCCCCCn1ccnc1 [Compound 2, N-Dodecylimidazole] | lysosomotropic detergents |

Tested on: not given
Experiment: not given
Settings: Barker and Hadgraft; cited from earlier work

| SMILES | help the transport of anionic drugs |
| --- | --- |
| CCCCCCCCCCCCN1CCOCC1 [Compound 1, N-Dodecylmorpholine] | help the transport of anionic drugs |

Tested on: cholesterol biosynthesis
Experiment: not given
Settings: rat liver; Baggeley et al.; cited from earlier work

| SMILES | inhibitor of cholesterol biosynthesis |
| --- | --- |
| CCCCCCCCCCCCn1ccnc1 [Compound 2, N-Dodecylimidazole] | inhibitor of cholesterol biosynthesis in rat liver |
